Measured values reported in patent US20250276996A1, “CATIONICALLY-ENFRAMED HIGH DENSITY AROMATIC PEPTIDES” (Research Foundation of the City University of New York, priority 2022, published 2025).
Non-standard residues stand in square brackets, D forms with d. Residues, ends and D or L forms follow the SMILES beside them. *: point of attachment. Biotin = O=C1N[C@H]2[C@H](CS[C@H]2CCCCC(=O)*)N1

Assays:
[1] = test system: retina; experiment: Biotin-HDAP2 uptake and distribution in retina; format: in vivo, mice
Protocol: Biotin-HDAP2 (40 mg/kg) was administered intraperitoneally to mice (male or female) and 60 minutes later retina was collected, fixed and sectioned. […] (FIG. 7A and FIG. 7B).
Biotin-HDAP2 uptake in retina: Adult animals were injected with 50 mg/kg biotin-HDAP2 (IP; GenScript, Piscataway, NJ) reconstituted in saline and observed for 2 hours before sacrifice. Eyes were marked to record their orientation, and the animals were given an overdose of ketamine (300 mg/kg)/xylazine (60 mg/kg) (IP) before removing each eye from the orbit with forceps. Whole eyes were dropped into 4% paraformaldehyde that was constituted in either 0.1M Tris or phosphate buffers (pH 7.3) and after ten minutes, the cornea, lens and vitreous body were removed to ensure better penetration of the fixative into the retina. The eyecups were returned to the fixative for one hour. Retinas for wholemounts were dissected from the pigment epithelium by cutting along the or a serrata, gently teasing the retina away from the back of the eye and then freeing the retina by severing the optic nerve. Retinas for cryo-sectioning remained in the eyecup, were cryoprotected in 0.1M Tris or phosphate-buffered sucrose (10%, 20% and 30%) prior to embedding in OCT (Polyfreeze, Polysciences) and sectioned at a thickness of 14 μm at −25° C. using a cryostat (Leica CM3050S).
Immunohistochemistry: Fixed retinas were labeled with cell markers using conventional immunohistochemical protocols to identify cells and structures associated with biotin-HDAP2, and to identify retinal ganglion cells and starburst amacrine cells to assess cell survival following optic nerve crush. Retinas and sections were blocked and permeabilized with 4% normal donkey serum in 0.1M Tris or phosphate buffers with 0.5% Triton-X for 1 hour and then incubated overnight (for sections) or for 3 days (for wholemounts) at 4° C. in selected primary antibodies, and 2% normal donkey serum in the same buffer. […]

[2] = test system: HK-2 cells; experiment: PCNA expression in serum-starved cells; format: cell-based; conditions: serum starved for 3 days
Excerpt: FIG. 18B are representative images of HK-2 cells serum starved for 3 days in the presence or absence of biotin-HDAP2 (SEQ ID NO: 1), HDAP4 (SEQ ID NO: 13), and biotin-HDAP6 (SEQ ID NO: 10) and then tested for the expression of Proliferating Cell Nuclear Antigen (PCNA) (bottom row), a positive marker for cell proliferation. The Hoechst 33342 probe (Hc) was used to label the nucleus to determine cellular localization (top row).

[3] = Nile Red fluorescence shift in POPC-CL liposomes; format: binding, bovine; conditions: 638 nm before the shift
Protocol: (§1) The resulting multilamellar vesicles were vortexed lightly and sized into small unilamellar vesicles by heated bath sonication for 25 min. All liposomes were cooled to ambient temperature before use.
(§2) Interactions between biotin-HDAP2 and Phospholipid liposomes measured by Nile Red fluorescence: The hydrophobicity of biotin-HDAP2 and phospholipids was examined by changes in the spectral fluorescence shift and intensity of Nile Red (NR, 10 μM). NR increases its intensity of fluorescence when combined with the hydrophobic environments of acyl chains of phospholipids, and produces a blue shift when hydrophobicity is increased. All experiments were done with 30 μM of either CL or POPC and 30 μM of biotin-HDAP2 in 10 mM Hepes (pH 7.4) to optimize the electrostatic interactions of peptides with phospholipids. The solvents used to dissolve the various phospholipids (chloroform, methanol, and ethanol) had negligible effects on the fluorescence spectra.

[4] = test system: MDBK cells; experiment: NAO binding to mitochondria in MDBK cells; format: cell-based, bovine; conditions: NAO 1 μM, biotin-HDAP2 10 μM
[5] = test system: ARPE-19 cells; experiment: Mitochondrial potential in the presence of CCCP (TMRM); format: cell-based; conditions: 10 μM CCCP, TMRM
Protocol: Effects of peptides on mitochondrial potential in the presence of Carbonyl cyanide m-chlorophenylhydrazone (CCCP): ARPE-19 cells (ATTC-CRL-2302) (5×10^4 cells) were seeded in 35 mm glass dishes in DMEM/F12 medium with 10% FBS for 24 hr. On the day of the experiment, cells were cultured in DMEM/F12 in the presence of different concentrations of biotin-HDAP2 for 60 min (FIG. 17B). Then, cells were incubated with 10 μM CCCP in the presence of 5 nM TMRM, 100 nM Mito View Green, and 10 μg/ml Hoechst 33342 for 15 min at 37° C. Fluorescent images were immediately obtained with a Nikon Eclipse 50i fluorescence microscope (60× objective) using FITC (Mito View Green), Texas Red (TMRM), and DAPI (Hoechst) filters. Images were collected from three independent experiments, using 4-6 random fields for each treatment group, and imaged and analyzed as described for NR.

[6] = test system: mice; conditions: 3 mg/kg daily for 14 days or biweekly for two months
[7] = Nile Red fluorescence shift in POPC liposomes; format: binding
Protocol: as §1, §2

[8] = test system: ARPE-19 cells; experiment: Restoration of mitochondrial membrane potential after 3 days of serum starvation (TMRM); format: cell-based; conditions: 2 hours incubation after 3 days of serum starvation
Excerpt: Serum starvation for 3 days reduced mitochondrial membrane potential in serum-free controls (SFC), compared to regular cells grown on serum (FBS). […] Error bars represent SEM (n=5) ***P<0.001.

[9] = NAO fluorescence with POPC liposomes; format: binding
Protocol: as §1
Interaction of biotin-HDAP2 Peptide with Phospholipids: The ability of biotin-HDAP2 to displace nonyl acridine orange (NAO), a fluoroprobe known to selectively bind CL was determined. Interaction of biotin-HDAP2 with phospholipids was examined by measuring changes in the fluorescence spectra of 3 μM NAO (Molecular Devices, Sunnyvale, CA)) with excitation at 480 nm. CL and POPC in liposomes were use at 30 μM. Dose response curves were done with 30 μM CL, biotin-HDAP2 (0, 2.5, 5, 10, 20, and 30 μM), and 3 μM of NAO (ex/em at 480 nm/520 nm). All experiments were done in 10 mM Hepes (pH 7.4) to optimize electrostatic interactions of peptides with phospholipids.

N=C(N)NCCC[C@@H](NC(=O)[C@H](Cc1ccccc1)NC(=O)[C@H](Cc1ccccc1)NC(=O)[C@@H](CCCNC(=N)N)NC(=O)CCCC[C@@H]1SC[C@@H]2NC(=O)N[C@@H]21)C(N)=O [biotin-HDAP2, Biotin-dArg-Phe-Phe-dArg-NH2] (Biotin-[dR]FF[dR]-NH2)
distribution in retina ([1]; 3 mg/kg, IP): labeled all layers of the retina
distribution in retina ([1]; 40 mg/kg intraperitoneally, 60 minutes): widely distributed throughout the retina
penetration of the retina-blood barrier ([1]; intravitreal injection and systemic administration): can penetrate the retina-blood barrier
expression of PCNA and cell proliferation [2]: increase proliferation expression of PCNA and cell proliferation during serum starvation
Nile Red emission after blue shift [3]: 618 nm
NAO binding to mitochondria [4]: inhibited NAO binding to mitochondria in MDBK cells
effect on CCCP-mediated mitochondrial depolarization [5]: prevented CCCP-mediated decreases in the mitochondrial membrane potential in a dose-dependent manner
effect on CCCP-mediated mitochondrial depolarization ([5]; listed as Biotin-HDAP2): prevented mitochondrial depolarization in a dose-dependent manner
toxicity in mice [6]: no adverse effects
Nile Red shift [7]: no shift could be detected
restoration of mitochondrial membrane potential [8]: restored mitochondrial membrane potential within 2 hours
effect on interaction between NAO and POPC liposomes [9]: did not interfere with the interaction between NAO and the POPC liposomes
